Results on twelve molecules are retold here after US7745422B2, “Bisphosphonate compounds and methods for bone resorption diseases, cancer, bone pain, immune disorders, and infectious diseases” (The Board of Trustees of the University of Illinois, priority 2004, dated 2010).

Structures are written as SMILES. pEC50, pIC50, pKi: −log10 of the molar value. Like-named read-outs stand apart in the source and are kept apart here.

In experiment [1] the test system is Vγ2Vδ2 T cells. In words: gammadelta T cell stimulation (TNF-α release assay). The class given is cell-based, human. The text has this:
(§1) We then investigated the activity of each compound in inhibiting the FPPS from L. major, in Dictyostelium discoideum growth inhibition and in γδ T cell activation. We used the FPPS from L. major since this enzyme is the putative bisphosphonate target in several trypanosomatid species.

A further experiment addresses T1, human FPPS (Homo sapiens, UniProt P14324).
T1 sequence (P14324 1-419): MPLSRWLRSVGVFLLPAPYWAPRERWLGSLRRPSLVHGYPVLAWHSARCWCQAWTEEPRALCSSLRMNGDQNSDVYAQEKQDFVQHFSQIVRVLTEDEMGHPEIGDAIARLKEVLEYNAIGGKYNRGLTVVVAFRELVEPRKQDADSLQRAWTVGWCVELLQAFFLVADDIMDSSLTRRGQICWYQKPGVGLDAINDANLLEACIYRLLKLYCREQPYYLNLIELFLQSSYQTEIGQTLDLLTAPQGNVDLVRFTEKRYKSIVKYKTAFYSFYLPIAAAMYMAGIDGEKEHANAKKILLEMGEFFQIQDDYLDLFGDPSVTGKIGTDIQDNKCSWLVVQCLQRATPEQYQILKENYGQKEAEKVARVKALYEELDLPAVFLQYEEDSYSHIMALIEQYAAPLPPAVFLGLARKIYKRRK
Kind of experiment: human FPPS assay. The class given is biochemical.

In the next experiment the test system is Dictyostelium discoideum. In words: D. discoideum cell growth inhibition. The class given is cell-based.
Excerpt: as §1

Experiment [2] deals with Vγ2Vδ2 T cells. The settings on record: TNF-α release, footnote b: data from Ref. 30; read-out: gammadelta T cell stimulation, EC50; cited from earlier work.
The next experiment deals with pyrophosphatase enzymes. In words: Pyrophosphatase inhibition. It counts as biochemical. The text has this: We explored the hypothesis of whether analogs of pyrophosphate could block pyrophosphatase enzymes and/or inhibit cellular growth or function. We used certain bisphosphonate compounds that are currently applied in bone resorption therapy.
The subject of the next experiment is parasite cell growth. In words: Parasite cell growth inhibition. It counts as cell-based. The text has this: We explored the hypothesis of whether analogs of pyrophosphate could block pyrophosphatase enzymes and/or inhibit cellular growth or function. We used certain bisphosphonate compounds that are currently applied in bone resorption therapy. The compounds included pamidronate (Aredia®, Novartis), alendronate (Fosamax®, Merck), and risedronate (Actonel®, Procter & Gamble). […] Without wishing to be bound by a particular theory, the compounds appeared to act as inhibitors of isoprenoid biosynthesis (FIG. 6).

In the next experiment the target is T2, L. major FPPS (Leishmania major, UniProt Q4QBL1).
T2 sequence (Q4QBL1 1-362): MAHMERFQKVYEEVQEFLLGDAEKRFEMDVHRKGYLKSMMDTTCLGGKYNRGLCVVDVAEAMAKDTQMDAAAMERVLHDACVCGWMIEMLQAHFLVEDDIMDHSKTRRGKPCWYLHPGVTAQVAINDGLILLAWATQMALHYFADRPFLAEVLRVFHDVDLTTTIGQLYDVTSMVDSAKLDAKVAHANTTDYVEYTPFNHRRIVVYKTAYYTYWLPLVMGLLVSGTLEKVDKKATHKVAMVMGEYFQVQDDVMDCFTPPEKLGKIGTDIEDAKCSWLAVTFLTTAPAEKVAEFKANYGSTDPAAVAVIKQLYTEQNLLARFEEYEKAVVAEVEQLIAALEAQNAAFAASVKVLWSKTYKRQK
To be noted: read-out: L. major FPPS Ki; Table 1, footnote a: data from Ref. 17; cited from earlier work.

The next experiment relates to cutaneous leishmaniasis. In words: Treatment of cutaneous leishmaniasis in mice. It counts as in vivo. The text has this:
The average lesion size in treated mice was reduced during a time period of several weeks and in a dose-dependent manner relative to […] mice.

[3] abbreviates: Table 4, read-out: (3) gammadelta T cell stimulation EC50.
Setting [4] is: Table 4, read-out: (2) human FPPS IC50.
Setting [5] is: Table 4, read-out: (1) D. discoideum IC50.

As a reminder, the pIC50 is −log10 of the IC50, conventionally taken in molar units. As to `O=P([O-])(O)C(O)(C[n+]1cccc(Br)c1)P(=O)(O)O` (centres unmarked) [Compound 484], the pEC50 in the experiment with Vγ2Vδ2 T cells [1] (Homo sapiens, T-cell, read-out: gammadelta T cell stimulation EC50) is 5.34. Further, the negative-log IC50 (pIC50) at human FPPS is 5.60; in the experiment with Dictyostelium discoideum (Dictyostelium discoideum, read-out: (1) D. discoideum IC50), 5.46.

Consider `O=P([O-])(O)C(C[n+]1cccc(C(F)(F)F)c1)P(=O)(O)O` (centres unmarked) [Compound 511], for which the pEC50 in the experiment with Vγ2Vδ2 T cells [1] (setting [3]) was 4.85. Also, the pIC50 at human FPPS (setting [4]) is 5.60; in the experiment on Dictyostelium discoideum (setting [5]), 5.39.

Turning to `O=P([O-])(O)C(C[n+]1cccc(Cl)c1)P(=O)(O)O` (centres unmarked) [Compound 526], the pEC50 with Vγ2Vδ2 T cells [1] (setting [3]) was 5.07. The pIC50 is 5.92 on human FPPS (setting [4]) and 5.68 in the experiment on Dictyostelium discoideum (setting [5]).

With `O=P([O-])(O)C(C[n+]1cccc(I)c1)P(=O)(O)O` (centres unmarked) [Compound 542], the pEC50 with Vγ2Vδ2 T cells [1] (setting [3]) was 4.92. Also, the values for the pIC50 on human FPPS (setting [4]) and with Dictyostelium discoideum (setting [5]) were 5.92 and 5.77, respectively.

As to `O=P([O-])(O)C(O)(C[n+]1cccc(I)c1)P(=O)(O)O` (centres unmarked) [Compound 582], the pIC50 on human FPPS (setting [4]) was 5.80; with Dictyostelium discoideum (setting [5]), 5.46.

For `CCOc1cccc(-c2ccc[n+](CC(P(=O)([O-])O)P(=O)(O)O)c2)c1` (centres unmarked) [Compound 588], the pEC50 in the experiment with Vγ2Vδ2 T cells [1] (setting [3]) was 3.92. Also, the pIC50 is 4.96 at human FPPS (setting [4]) and 5.48 in the experiment with Dictyostelium discoideum (setting [5]).

In the case of `O=P([O-])(O)C(O)(C[n+]1cccc(O)c1)P(=O)(O)O` (centres unmarked) [Compound 595], the pEC50 with Vγ2Vδ2 T cells [1] (setting [3]) was 3.68. For the same molecule, the results for the pIC50 at human FPPS (setting [4]) and with Dictyostelium discoideum (setting [5]) were 5.57 and 4.31, respectively.

For the molecule `CCCCC#Cc1ccc[n+](CC(P(=O)([O-])O)P(=O)(O)O)c1` (centres unmarked) [Compound 597], the pEC50 in the experiment with Vγ2Vδ2 T cells [1] (setting [3]) was 4.24. The pIC50 on human FPPS (setting [4]) is 5.72.

In the case of `NCCCC(O)(P(=O)(O)O)P(=O)(O)O` [alendronate], the pEC50 in the experiment with Vγ2Vδ2 T cells [2] is 4.28. For the same molecule, in the experiment on pyrophosphatase enzymes, the “inhibition of pyrophosphatases” value is given as “did not appear necessarily to inhibit”. In the experiment on parasite cell growth, the “parasite cell growth inhibition” value was “did inhibit”.

The pKi is the negative decadic logarithm of the Ki, by convention in mol/L. For the molecule `O=P(O)(O)C(NC1CCCCCC1)P(=O)(O)O` [incadronate], at L. major FPPS, the pKi was 7.64. Moreover, the pIC50 with Dictyostelium discoideum (cell growth inhibition, Table 1 and text, read-out: D. discoideum IC50) is 5.80. In the experiment with Vγ2Vδ2 T cells [2], the pEC50 is 4.82.

Regarding `NCCC(O)(P(=O)(O)O)P(=O)(O)O` [pamidronate], the treating cutaneous leishmaniasis entry with cutaneous leishmaniasis (mice) is “effective”. Also, the average lesion size entry with cutaneous leishmaniasis (treated mice, several weeks, dose-dependent) is “reduced”. For the same molecule, the “inhibition of pyrophosphatases” value with pyrophosphatase enzymes was “did not appear necessarily to inhibit”. In addition, the “parasite cell growth inhibition” value with parasite cell growth was “did inhibit”.

`O=P(O)(O)C(O)(Cc1cccnc1)P(=O)(O)O` [risedronate]: the pEC50 with Vγ2Vδ2 T cells [2] was 5.21. The “inhibition of pyrophosphatases” value with pyrophosphatase enzymes is reported as “did not appear necessarily to inhibit”. Further, the “parasite cell growth inhibition” value with parasite cell growth is “did inhibit”.
